The CC50 is the concentration giving 50% cytotoxicity. What is called EC50 is the midpoint of the concentration-response curve. Usually AC50 stands for the concentration at which the activity in the assay is half-maximal.

These results are taken from ChEMBL document CHEMBL1201862, “PubChem BioAssay data set” (2004).

Data set [1] relates to Vero. Briefly: cells. Type of data set: functional, cell-based. Conditions: Chlorocebus sabaeus.
Data set [2] has as its system Vero. Briefly: cells. Type of data set: functional. Particulars: Chlorocebus sabaeus.
Data set [3] concerns BJ. The experiment in a line: cytotoxicity toward BJ-TERT fibroblasts, dose response, cell-based, RAS-independent, luminescence (AID 1933). The format is functional. Conditions: Homo sapiens.
The subject of data set [4] is BJ. Briefly: cells. The format is functional, cell-based. Conditions: Homo sapiens.
The nature of data set [5]: cytotoxicity toward DRD oncogenic fibroblasts, dose response, cell-based, non-viral oncogenic, luminescence (AID 1934). The format is functional. Conditions: Homo sapiens.
In data set [6] the test system is BJ. The experiment in a line: cytotoxicity toward BJ-TERT-LT-ST fibroblasts, dose response, cell-based, RAS-independent, luminescence (AID 1935).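 Also: BJ fibroblasts immortalized with TERT plus LT and ST oncogenes.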 The format is functional. Particulars: Homo sapiens.
A further data set addresses T1, Caspase-6 (Homo sapiens, UniProt P55212).
T1 sequence (P55212 whole entry): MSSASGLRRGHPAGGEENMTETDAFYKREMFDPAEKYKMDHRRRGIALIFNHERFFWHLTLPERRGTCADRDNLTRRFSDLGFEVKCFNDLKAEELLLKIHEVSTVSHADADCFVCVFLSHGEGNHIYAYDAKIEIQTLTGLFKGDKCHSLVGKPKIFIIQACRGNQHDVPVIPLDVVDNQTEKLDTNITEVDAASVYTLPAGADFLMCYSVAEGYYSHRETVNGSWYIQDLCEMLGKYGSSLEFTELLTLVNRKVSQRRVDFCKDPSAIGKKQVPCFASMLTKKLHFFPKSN
Briefly: human caspase-6 inhibitors, dose response, biochemical, VEID-R110 fluorescence, cherry-pick (AID 720632).

The nature of data set [7]: LGR2 antagonists, dose response, cell-based, HEK293, CRE-luciferase reporter, cherry pick, set 2 (AID 743343).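 Also: transfected cells were stimulated with diluted bursicon conditioned medium after compound addition.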 The format is functional.
Data set [8] is described as follows: HEK293 cell cytotoxicity, dose response, cytotoxicity control, plate reader, cherry-picked samples (AID 743446). Type of data set: functional, cell-based.
Data set [9] can be described thus: A549 cell cytotoxicity, dose response, cytotoxicity control, plate reader, cherry-pick, antagonist series (AID 743412). The format is functional, cell-based.
Data set [10] in a line: MC4R antagonists, dose response, counter-screen for LGR2 antagonist project, cell-based, plate reader, cherry pick (AID 743444).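 Also: transfected HEK 293 cells stimulated with alpha-MSH peptide; potency of inhibitors of the alpha-MSH evoked signal.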 Type of data set: functional. Background: A counterscreen serves to expose hits that act by an unwanted route or on another target.
Data set [11] in a line: HepG2 cell cytotoxicity, dose response, cytotoxicity control, plate reader, cherry-pick, antagonist series (AID 743416). The format is functional, cell-based.
Data set [12] is described as follows: P. falciparum Dd2 growth inhibitors, dose response, SYBR Green, dry powder samples (AID 1159566).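 Also: potency for growth inhibition with lower SYBR green DNA signal.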 The format is functional, cell-based.
The nature of data set [13]: P. falciparum ATP4 D1247Y mutant growth inhibitors, dose response, NITD609-resistant line, SYBR Green, dry powder (AID 1159571).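 Also: parasites synchronized at ring stage by sorbitol before testing.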 Type of data set: functional, cell-based.
Data set [14] is described as follows: P. falciparum 3D7-ScDHODH growth inhibitors, dose response, SYBR Green, dry powder samples (AID 1159570).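 Also: parasite growth measured after 72 hours of compound exposure.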 Type of data set: functional, cell-based.
A short description of data set [15]: P. falciparum Dd2 growth inhibitors, dose response, SYBR Green, cherry-picked samples (AID 1159567). The format is functional, cell-based.
A further data set addresses Cytochrome P450 2C19 (Homo sapiens, UniProt P33261). Briefly: Cytochrome panel assay with activity outcomes. Panel member name: p450-cyp2c19 Compounds with AC50 equal or less than 10 uM are considered active. Type of data set: functional. Particulars: read-out: AC50.
A further data set concerns the target Cytochrome P450 2C9 (Homo sapiens, UniProt P11712).
Data set [16] deals with Glyceraldehyde-3-phosphate dehydrogenase (Homo sapiens, UniProt P04406).
Sequence of Glyceraldehyde-3-phosphate dehydrogenase (P04406 whole entry): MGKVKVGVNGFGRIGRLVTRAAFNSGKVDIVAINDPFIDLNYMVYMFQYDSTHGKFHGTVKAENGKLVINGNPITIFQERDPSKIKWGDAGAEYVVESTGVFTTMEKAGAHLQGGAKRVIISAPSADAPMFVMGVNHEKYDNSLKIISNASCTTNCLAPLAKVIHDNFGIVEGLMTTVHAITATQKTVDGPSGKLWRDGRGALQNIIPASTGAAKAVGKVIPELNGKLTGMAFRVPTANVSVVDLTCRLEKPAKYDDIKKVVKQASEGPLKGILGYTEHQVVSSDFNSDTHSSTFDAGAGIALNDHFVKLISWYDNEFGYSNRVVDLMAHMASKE
The next data set concerns the target T2, Interleukin-8 (Homo sapiens, UniProt P10145).
T2 sequence (P10145 whole entry): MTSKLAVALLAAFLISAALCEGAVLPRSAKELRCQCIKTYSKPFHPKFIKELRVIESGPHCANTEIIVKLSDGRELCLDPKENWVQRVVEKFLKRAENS
The experiment in a line: Dose Response confirmation of uHTS small molecule hits for cystic fibrosis induced NFkb Inhibitors in a PAF-induced IL8 counterscreen. Type of data set: functional. Conditions: read-out: IC50_Mean.

The target in the next data set is Cytochrome P450 2D6 (Homo sapiens, UniProt P10635).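 Also: CYP2D6 member of a cytochrome P450 panel assay.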
Sequence of Cytochrome P450 2D6 (P10635 whole entry): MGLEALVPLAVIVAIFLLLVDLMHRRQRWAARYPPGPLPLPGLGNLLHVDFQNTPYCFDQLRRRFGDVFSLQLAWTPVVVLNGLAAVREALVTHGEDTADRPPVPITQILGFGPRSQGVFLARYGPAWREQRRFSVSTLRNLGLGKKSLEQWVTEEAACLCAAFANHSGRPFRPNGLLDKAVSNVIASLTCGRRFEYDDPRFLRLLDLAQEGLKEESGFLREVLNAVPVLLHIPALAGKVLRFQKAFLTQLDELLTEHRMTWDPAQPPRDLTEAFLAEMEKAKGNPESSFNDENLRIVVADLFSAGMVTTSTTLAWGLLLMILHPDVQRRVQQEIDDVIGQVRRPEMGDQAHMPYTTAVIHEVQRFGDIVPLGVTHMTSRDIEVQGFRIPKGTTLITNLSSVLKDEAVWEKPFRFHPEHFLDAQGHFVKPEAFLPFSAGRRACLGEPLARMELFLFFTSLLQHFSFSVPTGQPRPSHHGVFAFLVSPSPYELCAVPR
Data set [17] has as its target T3, Microphthalmia-associated transcription factor (Homo sapiens, UniProt O75030).
T3 sequence (O75030 whole entry): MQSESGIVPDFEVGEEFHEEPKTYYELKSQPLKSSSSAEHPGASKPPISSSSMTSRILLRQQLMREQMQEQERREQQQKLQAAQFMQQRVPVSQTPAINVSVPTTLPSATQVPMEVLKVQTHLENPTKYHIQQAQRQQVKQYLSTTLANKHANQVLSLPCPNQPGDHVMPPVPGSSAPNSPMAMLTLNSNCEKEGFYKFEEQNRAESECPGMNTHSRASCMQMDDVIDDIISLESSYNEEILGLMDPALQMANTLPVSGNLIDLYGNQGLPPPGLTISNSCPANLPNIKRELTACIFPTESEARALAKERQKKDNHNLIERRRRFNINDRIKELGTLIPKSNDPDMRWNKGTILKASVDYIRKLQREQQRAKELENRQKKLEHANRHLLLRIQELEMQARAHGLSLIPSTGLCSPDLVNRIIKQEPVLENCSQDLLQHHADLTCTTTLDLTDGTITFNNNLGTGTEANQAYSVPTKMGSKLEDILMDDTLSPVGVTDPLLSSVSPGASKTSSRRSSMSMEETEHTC
The experiment in a line: TRPM1 promoter luciferase signal decrease, dose response, MITF inhibitor project, cell-based, SK-MEL-5, cherry-picked, set 3 (AID 493073).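 Also: SK-MEL-5 melanoma cells with luciferase driven by the MITF target TRPM1 promoter.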 Type of data set: functional.

Another data set has as its system INS1. Briefly: beta cell apoptosis inhibitors, cytokine rescue, dose response, luminescence, retest (AID 449756).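 Also: cell death triggered by IL-1 beta plus TNF-alpha plus IFN-gamma mixture; protective hits raise ATP signal compared with cytokine alone wells.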 Particulars: Rattus norvegicus. The format is functional, cell-based.
For a further data set, the target named is Cytochrome P450 3A4 (Homo sapiens, UniProt P08684).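 Also: CYP3A4 tested as one member of a cytochrome P450 panel screen.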
Sequence of Cytochrome P450 3A4 (P08684 whole entry): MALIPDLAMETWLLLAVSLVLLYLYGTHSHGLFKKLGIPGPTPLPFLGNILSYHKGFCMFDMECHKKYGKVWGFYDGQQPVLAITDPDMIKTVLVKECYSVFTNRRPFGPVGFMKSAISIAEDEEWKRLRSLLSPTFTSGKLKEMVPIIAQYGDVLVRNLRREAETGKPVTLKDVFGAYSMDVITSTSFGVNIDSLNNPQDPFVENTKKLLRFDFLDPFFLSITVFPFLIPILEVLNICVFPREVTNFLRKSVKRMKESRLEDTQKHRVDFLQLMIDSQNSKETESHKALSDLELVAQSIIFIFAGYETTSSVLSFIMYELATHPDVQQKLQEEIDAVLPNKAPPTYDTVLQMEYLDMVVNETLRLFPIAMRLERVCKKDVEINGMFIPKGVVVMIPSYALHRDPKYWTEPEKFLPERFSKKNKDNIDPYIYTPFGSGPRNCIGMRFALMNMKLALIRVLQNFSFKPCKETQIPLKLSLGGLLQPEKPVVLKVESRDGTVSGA
A short description of data set [18]: inhibitors of firefly luciferase expression or activity, dose response, H4 neuroglioma cells, luminescence (AID 1990). Type of data set: functional, cell-based.
The nature of data set [19]: Luminescence Cell-Based Dose Response HTS to Identify Inhibitors of 5'UTR Stem-Loop Driven Prion Protein mRNA Translation in H4 Neuroglioblastoma Cells. [Related pubchem assays: 1827 (Project Summary), 1813 (Primary HTS)]. Type of data set: functional.
The nature of data set [20]: inhibitors of SNCA 5'UTR-driven reporter translation, confirmation, H4 neuroglioma cells, luminescence (AID 1988). Type of data set: functional, cell-based.
A further data set has as its target Paired box protein Pax-8 (Homo sapiens, UniProt Q06710). The experiment in a line: inhibitors of PAX8-driven TPO luciferase reporter, dose response, RMG-I cells, cherry-pick (AID 687027).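 Also: luciferase reporter driven by Pax8 target thyroperoxidase promoter measured by SteadyGlo luminescence.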 Type of data set: functional, cell-based. (Reporter assays use an easily measured gene product as a stand-in for the process of interest.)
A short description of data set [21]: Shn3 3'UTR reporter inhibitors, dose response, cell-based, Clone20 osteoblasts, firefly luciferase, cherry-picked (AID 624132).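 Also: firefly luciferase luminescence from reporter carrying the Shn3 3'UTR in osteoblasts.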 The format is functional.
For data set [22], the target named is T4, Heat shock factor protein 1 (Mus musculus, UniProt P38532).
T4 sequence (P38532 whole entry): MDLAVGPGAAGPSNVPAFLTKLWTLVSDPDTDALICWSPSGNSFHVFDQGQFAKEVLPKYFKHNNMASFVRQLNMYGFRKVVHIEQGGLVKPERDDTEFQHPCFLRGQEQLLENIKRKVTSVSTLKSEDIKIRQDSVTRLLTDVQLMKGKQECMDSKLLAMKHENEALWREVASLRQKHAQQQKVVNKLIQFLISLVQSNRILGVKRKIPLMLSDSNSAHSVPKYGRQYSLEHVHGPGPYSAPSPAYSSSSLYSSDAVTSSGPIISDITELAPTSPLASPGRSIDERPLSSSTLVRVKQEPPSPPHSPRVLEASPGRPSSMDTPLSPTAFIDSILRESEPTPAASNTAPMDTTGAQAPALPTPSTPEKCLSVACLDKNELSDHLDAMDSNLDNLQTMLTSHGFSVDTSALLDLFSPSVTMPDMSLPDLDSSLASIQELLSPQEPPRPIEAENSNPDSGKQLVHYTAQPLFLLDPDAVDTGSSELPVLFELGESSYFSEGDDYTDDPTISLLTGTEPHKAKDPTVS
The experiment in a line: inhibition of MG132-induced HSE-luciferase signal, confirmation, cell-based, NIH3T3, luminescence, dose retest (AID 2382).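 Also: NIH3T3 fibroblasts with HSF1-driven luciferase reporter stressed by proteasome inhibitor MG132; luminescence from HSF1-driven luciferase expression after 8 hours of MG132 stress.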 Type of data set: functional.

Molecules are shown by their SMILES. Calls of active or inactive are those of the source.

Sequence of Cytochrome P450 2C19 (P33261 whole entry): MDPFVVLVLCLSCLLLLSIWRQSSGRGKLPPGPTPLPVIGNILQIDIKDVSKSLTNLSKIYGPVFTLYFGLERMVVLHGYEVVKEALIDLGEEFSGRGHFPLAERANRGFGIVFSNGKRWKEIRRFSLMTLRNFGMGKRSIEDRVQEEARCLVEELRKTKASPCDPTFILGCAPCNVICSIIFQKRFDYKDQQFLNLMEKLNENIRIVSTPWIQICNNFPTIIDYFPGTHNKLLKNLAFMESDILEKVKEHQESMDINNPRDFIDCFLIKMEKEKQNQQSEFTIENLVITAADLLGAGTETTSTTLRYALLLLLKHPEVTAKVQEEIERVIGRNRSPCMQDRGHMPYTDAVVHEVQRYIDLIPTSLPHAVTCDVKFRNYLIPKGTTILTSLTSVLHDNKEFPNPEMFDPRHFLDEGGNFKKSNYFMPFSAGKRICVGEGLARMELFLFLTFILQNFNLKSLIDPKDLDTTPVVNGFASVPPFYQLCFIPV
Sequence of Cytochrome P450 2C9 (P11712 whole entry): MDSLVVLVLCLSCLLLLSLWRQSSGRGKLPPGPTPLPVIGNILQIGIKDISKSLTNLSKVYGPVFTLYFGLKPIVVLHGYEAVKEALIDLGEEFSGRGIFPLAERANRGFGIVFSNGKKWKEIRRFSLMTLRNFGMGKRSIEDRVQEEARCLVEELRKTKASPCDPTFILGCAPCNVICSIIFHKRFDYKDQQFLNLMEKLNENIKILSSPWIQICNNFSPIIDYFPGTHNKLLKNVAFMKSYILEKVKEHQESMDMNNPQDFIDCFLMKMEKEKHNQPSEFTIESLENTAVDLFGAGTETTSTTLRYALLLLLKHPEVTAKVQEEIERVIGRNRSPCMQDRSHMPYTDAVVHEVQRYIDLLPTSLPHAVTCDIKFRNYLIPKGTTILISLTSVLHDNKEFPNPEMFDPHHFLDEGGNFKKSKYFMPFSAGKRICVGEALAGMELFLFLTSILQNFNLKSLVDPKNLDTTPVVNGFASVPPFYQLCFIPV
Sequence of Paired box protein Pax-8 (Q06710 whole entry): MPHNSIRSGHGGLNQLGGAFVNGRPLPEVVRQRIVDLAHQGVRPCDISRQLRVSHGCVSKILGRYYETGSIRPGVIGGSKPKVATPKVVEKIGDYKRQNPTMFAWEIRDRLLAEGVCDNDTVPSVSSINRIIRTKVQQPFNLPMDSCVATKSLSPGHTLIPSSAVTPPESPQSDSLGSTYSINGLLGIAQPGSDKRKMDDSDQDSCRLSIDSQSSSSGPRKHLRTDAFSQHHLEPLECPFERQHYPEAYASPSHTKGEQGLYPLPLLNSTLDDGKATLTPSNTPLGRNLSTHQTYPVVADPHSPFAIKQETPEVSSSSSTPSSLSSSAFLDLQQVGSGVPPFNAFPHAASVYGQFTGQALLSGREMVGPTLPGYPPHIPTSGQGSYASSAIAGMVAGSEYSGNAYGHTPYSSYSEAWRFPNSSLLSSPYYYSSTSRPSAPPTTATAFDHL

Turning to `O=C1C2CCCN2C(c2ccc(F)cc2)N1c1ccc(Cl)cc1` (stereo unspecified), the IC50 in the data set with Vero [1] was > 25 µM (active).
In the case of `O=C(NC1CCCCC1)c1ccc([N+](=O)[O-])o1`, in the data set with Vero [1], the IC50 is > 25 µM (active). In addition, the CC50 in the data set with Vero [2] is 18.4 µM (active).
For the molecule `CC1(C)CCSC(/C=C/c2ccccc2)=N1`, the IC50 in the data set with Vero [1] was 19.2 µM (active). The EC50 in the data set with BJ [3] was 7.83 µM (active); with BJ [4], 143 µM (active); in [5], 8.6 µM (active); with BJ [6] it was 12.4 µM (active). Moreover, the CC50 in the data set with Vero [2] is 18.5 µM (active).
With `O=[N+]([O-])c1ccc(F)c2c(O)[nH]nc12`, at Caspase-6, the AC50 is 6.73 µM (active).
Regarding `OC(c1ccccc1)(c1ccccc1)C1CCN(CCCOc2ccc(C(F)(F)F)cc2)CC1`, the AC50 in data set [7] was 18.8 µM (active); in [8], 16.6 µM (active); in [9] it was 9.23 µM (active); in data set [10], 11.6 µM (active); in data set [11], 10.7 µM (active).
For the molecule `COc1ccc(NC(=O)N(C)C[C@@H]2Oc3cc(-c4ccc(C)cc4)ccc3S(=O)(=O)N([C@H](C)CO)C[C@@H]2C)cc1`, the AC50 in [12] was 2.25 µM (active); in [13] it was 3.25 µM (active); in [14] it was 3.13 µM (active); in data set [15] it was 2.58 µM (active).
Consider `CCOc1ccc(NC(=O)Cn2nnc(C(=O)NCc3ccccc3OC)c2N)cc1`, for which the AC50 on Cytochrome P450 2C19 is 5.01 µM (inconclusive); on Cytochrome P450 2C9, “inconclusive”.
In the case of `COc1cc(S(=O)(=O)Nc2cccnc2)c(OC)cc1Br`, the IC50 in data set [16] is given as > 100 µM (not active).
With `COc1ccc2c(-c3cc4ccc(OCc5ccc(F)cc5)cc4oc3=O)cc(=O)oc2c1`, the EC50 in the data set on BJ [3] is 3.13 µM (active); in the data set with BJ [4], > 150 µM (not active); in data set [5], 8.57 µM (active); in the data set with BJ [6] it was 7.45 µM (inconclusive).
On to `CCc1cc(-c2n[nH]cc2-c2ccc(OC)cc2)c(O)cc1O`, for which the IC50 at Interleukin-8 was 6.31 µM (active).
Regarding `COc1ccc(Cl)cc1NC(=O)CN1C(=O)CSC1=O`, the AC50 is 39.8 µM (inconclusive) at Cytochrome P450 2C19, 5.62 µM (inconclusive) at Cytochrome P450 2D6 and “inconclusive” on Cytochrome P450 2C9.
For the molecule `COc1ccc(CCC(=O)Nc2ccc(S(=O)(=O)Nc3nccc(C)n3)cc2)cc1`, the AC50 at Caspase-6 was 47.1 µM (active).
In the case of `C/C(=N\NC(=O)C(c1ccccc1)c1ccccc1)c1ccccn1`, the AC50 was 5.96 µM (active) in data set [17] and 1.3 µM (active) in the data set on INS1.
`O=C1c2ccccc2C(=O)N1Cc1cc(-c2ccccc2Cl)no1`: the figures for the AC50 on Cytochrome P450 3A4, at Cytochrome P450 2D6 and at Cytochrome P450 2C9 were 39.8 µM (inconclusive), 3.16 µM (inconclusive) and “inconclusive”, respectively.
As for `Cn1cc([N+](=O)[O-])c(C(=O)Nc2ccn(C34CC5CC(CC(C5)C3)C4)n2)n1`, in the data set with Vero [1], the IC50 is 24.3 µM (active). The CC50 in the data set on Vero [2] is > 25 µM (active).
As to `C=CCNC(=S)N/N=C/c1ccc(-c2cc(Cl)ccc2Cl)o1`, the values for the AC50 on Cytochrome P450 2C19, on Cytochrome P450 3A4 and at Cytochrome P450 2C9 were 3.16 µM (inconclusive), 10 µM (inconclusive) and “inconclusive”, respectively.
For `COc1ccccc1OCCCCCc1c(C)n[nH]c1C`, the AC50 on Cytochrome P450 2C19 was 1.58 µM (inconclusive); on Cytochrome P450 2D6, 11.2 µM (inconclusive); at Cytochrome P450 2C9 it was “inconclusive”.
As for `COc1ccc(C(=O)Nc2ccc(C)cn2)c(OC)c1`, the EC50 in data set [18] is 1.15 µM (active); in data set [19], 28.2 µM (active); in [20], 0.307 µM (active). In addition, the AC50 in data set [17] is 3.7 µM (active).
`Cn1nnnc1Sc1ncnc2scc(-c3ccc4c(c3)OCO4)c12`: the AC50 in data set [7] was 0.695 µM (active); in data set [8], 28.8 µM (active); in data set [9], 14.4 µM (active); in [10] it was 1.34 µM (active); at Paired box protein Pax-8, 0.747 µM (active). Moreover, the CC50 in the data set with Vero [2] is 24 µM (active).
Regarding `COc1ccc(-c2nsc3c(N4CCCCC4C)ncnc23)cc1` (stereo unspecified), the AC50 in data set [7] is 0.135 µM (active); in [8], > 52 µM (inactive); in data set [9], > 52 µM (inactive); in data set [10], 0.134 µM (active); in data set [21], < 0.26 µM (active); in [11] it was > 52 µM (inactive). Moreover, the EC50 in data set [22] is < 0.16 µM (active).
